Laboratory results reported in US5481003A, “Protein kinase C inhibitors” (Eli Lilly and Company, priority 1994, dated 1996).
pIC50: −log10 of the molar value. “Also recorded” adds a separate entry of the source. Read-outs that look alike come from different tables or passages of the source. Blank lines part the entries; values can stand above or below the molecule they belong to.

Tests used:
PKC isozymes = conditions: cited from earlier work
protein kinase C eta = protein kinase C eta (Homo sapiens, UniProt P24723); test: PKC Enzyme Assay, eta isozyme; type: biochemical; conditions: 30 μM ATP, 30° C., 10 minutes
Experimental: (§1) PKC enzymes=alpha, beta 1, beta II, gamma, delta, epsilon, eta and zeta.
(§2) Assay components in a total volume of 250 μL are the following:
(§3) Vesicles consisting of 120 μg/mL phosphatidylserine (Avanti Polar Lipids)and sufficient diacylglycerol (Avanti Polar Lipids) to activate the enzyme to maximum activity in 20 mM HEPES buffer (Sigma, St. Louis, Mo.), pH 7.5, 940 μM calcium chloride (Sigma, St. Louis, Mo.) for assaying the alpha, beta I, beta II and gamma enzyme only, 1 mM EGTA for all the enzymes, 10 mM magnesium chloride (Sigma, St. Louis, Mo.) and 30 μM (gamma-32P) ATP (DuPont). For all the enzymes either histone type HL (Worthington) or myelin basic protein is used as substrate. The assay is started by addition of protein kinase C enzyme incubated at 30° C. for 10 minutes and stopped by adding 0.5 mL of cold trichloroacetic acid (Amresco) followed by 100 μL of 1 mg/mL bovine serum albumin (Sigma, St. Louis, Mo.). The precipitate is collected by vacuum filtration on glass fiber filters employing a TOMTEC™ filtration system and quantified by counting in a beta scintillation counter.

protein kinase C alpha = protein kinase C alpha (Homo sapiens, UniProt P17252); test: PKC Enzyme Assay, alpha isozyme; type: biochemical; conditions: 30 μM ATP, 30° C., 10 minutes
Experimental: as §1, §2, §3

protein kinase C beta-1 = protein kinase C beta-1 (Homo sapiens, UniProt P05771); test: PKC Enzyme Assay, beta-1 isozyme; type: biochemical; conditions: PKC beta-1; 30 μM ATP, 30° C., 10 minutes; read-out: IC50 β1
Experimental: as §1, §2, §3

protein kinase C beta-2 = protein kinase C beta-2 (Homo sapiens, UniProt P05771); test: PKC Enzyme Assay, beta-2 isozyme; type: biochemical; conditions: PKC beta-2; 30 μM ATP, 30° C., 10 minutes; read-out: IC50 β2
Experimental: as §1, §2, §3

protein kinase C gamma = protein kinase C gamma (Homo sapiens, UniProt P05129); test: PKC Enzyme Assay, gamma isozyme; type: biochemical; conditions: 30 μM ATP, 30° C., 10 minutes
Experimental: as §1, §2, §3

protein kinase C delta = protein kinase C delta (Homo sapiens, UniProt Q05655); test: PKC Enzyme Assay, delta isozyme; type: biochemical; conditions: 30 μM ATP, 30° C., 10 minutes
protein kinase C epsilon = target: T1, protein kinase C epsilon (Homo sapiens, UniProt Q02156); test: PKC Enzyme Assay, epsilon isozyme; type: biochemical; conditions: 30 μM ATP, 30° C., 10 minutes
T1 sequence (Q02156 1-737): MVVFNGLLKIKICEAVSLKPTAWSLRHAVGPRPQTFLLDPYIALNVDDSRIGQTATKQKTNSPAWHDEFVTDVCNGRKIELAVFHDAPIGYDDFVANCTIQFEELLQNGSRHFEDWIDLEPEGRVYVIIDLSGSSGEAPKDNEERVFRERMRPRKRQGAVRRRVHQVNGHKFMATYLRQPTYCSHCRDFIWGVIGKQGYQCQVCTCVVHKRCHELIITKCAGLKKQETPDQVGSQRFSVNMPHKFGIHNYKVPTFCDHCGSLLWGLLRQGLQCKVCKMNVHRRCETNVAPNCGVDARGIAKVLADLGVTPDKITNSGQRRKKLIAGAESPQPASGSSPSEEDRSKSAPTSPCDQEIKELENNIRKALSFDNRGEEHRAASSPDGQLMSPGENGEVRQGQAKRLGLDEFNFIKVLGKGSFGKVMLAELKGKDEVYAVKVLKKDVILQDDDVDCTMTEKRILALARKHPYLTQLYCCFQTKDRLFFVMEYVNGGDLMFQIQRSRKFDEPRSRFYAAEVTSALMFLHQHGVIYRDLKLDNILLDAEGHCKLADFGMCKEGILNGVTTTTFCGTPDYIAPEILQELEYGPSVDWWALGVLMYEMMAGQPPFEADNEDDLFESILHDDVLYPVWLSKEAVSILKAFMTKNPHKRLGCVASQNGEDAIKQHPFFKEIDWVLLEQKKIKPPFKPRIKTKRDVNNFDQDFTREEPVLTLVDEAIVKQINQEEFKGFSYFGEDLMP
Experimental: as §1, §2, §3

protein kinase C zeta = target: T2, protein kinase C zeta (Homo sapiens, UniProt Q05513); test: PKC Enzyme Assay, zeta isozyme; type: biochemical; conditions: 30 μM ATP, 30° C., 10 minutes
T2 sequence (Q05513 1-592): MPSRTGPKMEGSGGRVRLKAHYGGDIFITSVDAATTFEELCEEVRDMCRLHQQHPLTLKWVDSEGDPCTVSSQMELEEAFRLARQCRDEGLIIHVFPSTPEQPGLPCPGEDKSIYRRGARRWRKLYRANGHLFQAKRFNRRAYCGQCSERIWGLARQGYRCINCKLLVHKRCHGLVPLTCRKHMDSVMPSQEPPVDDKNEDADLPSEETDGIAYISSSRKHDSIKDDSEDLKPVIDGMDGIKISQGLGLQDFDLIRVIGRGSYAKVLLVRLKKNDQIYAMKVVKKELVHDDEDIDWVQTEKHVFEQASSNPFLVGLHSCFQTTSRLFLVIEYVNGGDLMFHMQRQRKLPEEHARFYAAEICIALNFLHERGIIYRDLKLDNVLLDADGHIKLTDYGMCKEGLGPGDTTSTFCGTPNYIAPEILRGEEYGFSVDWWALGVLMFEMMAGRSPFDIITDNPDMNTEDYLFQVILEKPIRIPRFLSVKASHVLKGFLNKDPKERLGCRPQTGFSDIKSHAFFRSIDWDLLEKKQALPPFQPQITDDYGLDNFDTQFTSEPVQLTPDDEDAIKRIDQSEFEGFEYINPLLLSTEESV
Experimental: as §1, §2, §3

Chain of protein kinase C beta-1 (P05771 whole entry): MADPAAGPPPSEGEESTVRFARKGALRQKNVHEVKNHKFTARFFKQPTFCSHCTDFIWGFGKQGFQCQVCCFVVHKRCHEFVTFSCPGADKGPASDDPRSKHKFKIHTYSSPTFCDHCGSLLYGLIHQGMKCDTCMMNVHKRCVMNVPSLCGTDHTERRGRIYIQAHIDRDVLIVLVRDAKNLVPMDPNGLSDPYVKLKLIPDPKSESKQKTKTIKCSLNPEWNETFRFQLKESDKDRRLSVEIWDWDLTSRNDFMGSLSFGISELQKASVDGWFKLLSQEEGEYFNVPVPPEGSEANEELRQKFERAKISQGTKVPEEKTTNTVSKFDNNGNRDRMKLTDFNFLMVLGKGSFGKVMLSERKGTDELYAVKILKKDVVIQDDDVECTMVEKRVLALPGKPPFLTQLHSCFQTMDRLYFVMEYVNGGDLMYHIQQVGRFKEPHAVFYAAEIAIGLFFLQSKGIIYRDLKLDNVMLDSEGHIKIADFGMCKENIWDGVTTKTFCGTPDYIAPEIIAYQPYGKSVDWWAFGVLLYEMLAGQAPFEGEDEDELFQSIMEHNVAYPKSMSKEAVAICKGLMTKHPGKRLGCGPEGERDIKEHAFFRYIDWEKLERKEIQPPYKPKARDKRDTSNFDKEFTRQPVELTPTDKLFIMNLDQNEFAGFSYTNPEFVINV
Chain of protein kinase C eta (P24723 whole entry): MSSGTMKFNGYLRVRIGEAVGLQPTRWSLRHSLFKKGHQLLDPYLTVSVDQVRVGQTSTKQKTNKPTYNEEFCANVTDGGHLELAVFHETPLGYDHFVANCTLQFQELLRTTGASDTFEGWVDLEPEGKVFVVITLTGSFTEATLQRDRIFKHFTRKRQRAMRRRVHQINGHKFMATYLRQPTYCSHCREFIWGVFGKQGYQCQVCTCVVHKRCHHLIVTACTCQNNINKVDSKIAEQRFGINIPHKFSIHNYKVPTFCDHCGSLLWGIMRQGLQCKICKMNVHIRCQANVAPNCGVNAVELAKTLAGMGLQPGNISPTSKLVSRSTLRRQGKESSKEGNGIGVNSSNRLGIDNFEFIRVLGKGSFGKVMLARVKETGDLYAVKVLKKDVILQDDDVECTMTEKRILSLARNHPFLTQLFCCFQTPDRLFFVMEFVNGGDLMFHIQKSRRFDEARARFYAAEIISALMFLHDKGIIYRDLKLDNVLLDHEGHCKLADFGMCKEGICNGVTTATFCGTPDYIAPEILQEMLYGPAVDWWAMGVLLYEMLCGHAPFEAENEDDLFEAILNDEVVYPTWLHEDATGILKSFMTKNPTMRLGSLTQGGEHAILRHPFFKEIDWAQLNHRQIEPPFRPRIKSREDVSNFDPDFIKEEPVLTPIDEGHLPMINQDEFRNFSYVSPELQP
Chain of protein kinase C delta (Q05655 whole entry): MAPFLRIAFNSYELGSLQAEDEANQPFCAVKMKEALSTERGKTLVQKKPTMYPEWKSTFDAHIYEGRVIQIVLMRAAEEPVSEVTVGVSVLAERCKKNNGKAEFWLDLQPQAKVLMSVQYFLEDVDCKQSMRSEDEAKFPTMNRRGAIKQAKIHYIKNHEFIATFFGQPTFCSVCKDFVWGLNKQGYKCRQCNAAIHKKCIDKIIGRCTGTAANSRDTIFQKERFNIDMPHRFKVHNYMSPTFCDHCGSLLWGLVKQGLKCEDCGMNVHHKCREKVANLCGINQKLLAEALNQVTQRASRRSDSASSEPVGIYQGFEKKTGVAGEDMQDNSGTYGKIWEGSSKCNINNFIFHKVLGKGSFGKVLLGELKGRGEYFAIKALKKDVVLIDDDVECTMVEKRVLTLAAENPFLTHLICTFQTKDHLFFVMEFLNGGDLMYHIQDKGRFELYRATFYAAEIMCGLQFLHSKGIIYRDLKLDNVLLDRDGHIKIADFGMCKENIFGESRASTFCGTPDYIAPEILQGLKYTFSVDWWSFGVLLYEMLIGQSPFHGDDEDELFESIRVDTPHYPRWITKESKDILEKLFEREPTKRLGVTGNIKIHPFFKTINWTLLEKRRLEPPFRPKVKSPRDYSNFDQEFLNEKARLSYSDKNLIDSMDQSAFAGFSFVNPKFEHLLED
Chain of protein kinase C beta-2 (P05771 1-673 isoform P05771-2): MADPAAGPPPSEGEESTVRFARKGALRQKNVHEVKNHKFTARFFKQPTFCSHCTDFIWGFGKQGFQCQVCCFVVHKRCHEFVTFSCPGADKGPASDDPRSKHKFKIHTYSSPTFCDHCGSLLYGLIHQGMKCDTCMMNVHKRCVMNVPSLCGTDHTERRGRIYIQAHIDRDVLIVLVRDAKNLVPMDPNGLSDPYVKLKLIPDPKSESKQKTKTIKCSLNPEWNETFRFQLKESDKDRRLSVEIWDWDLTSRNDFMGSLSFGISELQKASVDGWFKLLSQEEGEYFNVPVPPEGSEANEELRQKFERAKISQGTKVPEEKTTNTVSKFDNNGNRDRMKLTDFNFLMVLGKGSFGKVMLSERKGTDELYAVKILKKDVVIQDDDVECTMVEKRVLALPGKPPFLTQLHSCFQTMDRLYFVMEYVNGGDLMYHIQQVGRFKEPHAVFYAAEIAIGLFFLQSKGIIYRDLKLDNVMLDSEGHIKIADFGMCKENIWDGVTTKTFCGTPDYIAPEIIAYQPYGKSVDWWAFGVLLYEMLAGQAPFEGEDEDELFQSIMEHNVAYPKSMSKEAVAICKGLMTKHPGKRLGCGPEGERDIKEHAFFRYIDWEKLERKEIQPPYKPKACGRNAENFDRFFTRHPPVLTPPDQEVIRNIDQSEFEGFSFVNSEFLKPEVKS

SMILES: CN(C)CCCn1cc(C2=C(c3c[nH]c4ccccc34)C(=O)NC2=O)c2ccccc21 [3-[1-(3-dimethylaminopropyl)-indol-3-yl]-4-(1H-indol-3-yl)-1H-pyrrole-2,5-dione]
isozyme selectivity (PKC isozymes; Martiny-Baron, et al., J. Biol. Chem. 268:9194-9197 (1993)): slight selectivity for isozymes, alpha and beta versus delta, epsilon, and zeta; also recorded: no differences in the selectivity between alpha and beta-1 isozymes
isozyme selectivity (PKC isozymes; Toullec et al., J. Biol. Chem. 266:15771-15781 (1991)): slight selectivity for the calcium dependent isozymes; also recorded: no isozyme selectivity between alpha, beta-1, beta-2, and gamma

pIC50 (protein kinase C eta): 5.59
SMILES: CC(C)(C)OC(=O)NCC(=O)n1cc(C2=C(c3cn(CCCN=[N+]=[N-])c4ccccc34)C(=O)NC2=O)c2ccccc21 [Example 1, 3-[1-(3-azidopropyl)-3-indolyl]-4-[(1-N-^t BOC )-glycine-3indolyl]-1H-pyrrol-2,5-dione]

pIC50 (protein kinase C alpha): 5.64
pIC50 (protein kinase C beta-1): 6.82
pIC50 (protein kinase C beta-2): 7.40
pIC50 (protein kinase C gamma): 5.59
pIC50 (protein kinase C delta): 5.54
pIC50 (protein kinase C epsilon): 5.21
pIC50 (protein kinase C zeta): 4.35
pIC50 (protein kinase C eta): 6.43
SMILES: CN(C)CCCn1cc(C2=C(c3cn(C(=O)CNC(=O)OC(C)(C)C)c4ccccc34)C(=O)NC2=O)c2ccccc21 [Example 2, 3-[1-(3-N,N'-dimethylaminopropyl)-3-indolyl]-4-[(1-N-^t BOC)-glycine-3-indolyl]-1H-pyrrol-2,5-dione]

pIC50 (protein kinase C beta-1): 6.00
SMILES: CC(C)(C)OC(=O)N[C@@H](Cc1ccccc1)C(=O)n1cc(C2=C(c3cn(C(=O)[C@H](Cc4ccccc4)NC(=O)OC(C)(C)C)c4ccccc34)C(=O)NC2=O)c2ccccc21 [Example 3, 3,4-Bis[(1-N-^t BOC)-phenylalanine-3-indolyl]-1H-Pyrrol-2,5-dione]
